Measured values reported in patent US9834558B2, “Substituted bridged urea analogs as sirtuin modulators” (GLAXOSMITHKLINE LLC, priority 2013, dated 2017).
Where two headings read alike, the source gives them in different places.

Target: T1, SIRT1 (Homo sapiens, UniProt Q96EB6)
T1 sequence (Q96EB6 1-747): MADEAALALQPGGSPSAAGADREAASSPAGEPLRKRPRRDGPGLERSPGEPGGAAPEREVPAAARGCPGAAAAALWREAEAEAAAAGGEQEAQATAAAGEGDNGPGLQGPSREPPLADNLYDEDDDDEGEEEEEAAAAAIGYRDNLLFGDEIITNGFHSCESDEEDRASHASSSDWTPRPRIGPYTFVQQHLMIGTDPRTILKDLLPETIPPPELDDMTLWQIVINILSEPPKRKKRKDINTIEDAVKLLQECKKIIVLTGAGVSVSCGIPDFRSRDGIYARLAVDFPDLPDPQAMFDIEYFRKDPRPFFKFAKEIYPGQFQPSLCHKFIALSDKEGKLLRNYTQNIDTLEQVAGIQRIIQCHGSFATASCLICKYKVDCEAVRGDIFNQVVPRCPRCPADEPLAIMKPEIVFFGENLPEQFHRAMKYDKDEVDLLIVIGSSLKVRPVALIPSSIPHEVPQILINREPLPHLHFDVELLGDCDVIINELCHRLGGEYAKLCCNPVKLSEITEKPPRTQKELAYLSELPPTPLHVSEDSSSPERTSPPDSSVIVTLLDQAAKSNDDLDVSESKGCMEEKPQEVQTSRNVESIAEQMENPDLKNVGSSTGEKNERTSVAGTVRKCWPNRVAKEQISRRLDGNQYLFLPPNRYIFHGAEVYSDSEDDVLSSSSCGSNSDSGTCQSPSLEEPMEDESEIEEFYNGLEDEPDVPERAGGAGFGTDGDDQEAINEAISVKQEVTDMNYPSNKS
Experiment: Trp mass spectrometry assay of SIRT1 activation
Assay type: biochemical
Details: for TRP Activity (EC1.5): EC1.5 = concentration that results in 150% activation of SIRT1
Procedure, shortened: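 N-terminal His-tagged human SIRT1 (10 nM, E. coli BL21(DE3)) with 0.5 μM Ac-RHKK(Ac)W-NH2 peptide and 120 μM βNAD+, 25 min at 25 °C in HEPES pH 7.5, formic acid stop. OAADPR or deacetylated peptide quantified by mass spectrometry; EC1.5 (50% activity increase over control) and Percent Maximum Activation reported.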

[1] = concentration giving 150% activation of SIRT1, Trp peptide substrate
[2] = Trp mass spectrometry assay, EC1.5 = concentration of test compound that results in 150% activation of SIRT1
[3] = Trp peptide assay, maximum activity relative to control (100%), read-out: TRP MAX RESP (percent maximum fold activation)
[4] = Trp mass spectrometry assay, concentration of test compound giving 150% activation of SIRT1

## O=C(Nc1cc(-c2cnco2)cc(-c2cnco2)c1)N1c2nc(-c3cccc(C(F)(F)F)c3)ccc2N2CC[C@H]1C2 [Example 743]
[1]
  Tryp AVG EC1.5 (μM): A (A (EC1.5<1 μM))

## O=C(NCCCc1ccccn1)N1c2nc(-c3cccc(C(F)(F)F)c3)ccc2N2CC[C@H]1C2 [Example 673]
[1]
  Tryp AVG EC1.5 (μM): B (B (EC1.5 1-25 μM))

## COc1cc(NC(=O)N2c3nc(-c4ccc(C)nc4)ccc3N3CCC[C@H]2C3)ncn1 [Example 478]
[2]
  Tryp AVG EC1.5 (μM): B (B (EC1.5 1-25 μM))

## CC(C)(C)OC(=O)NCC#Cc1ccc(NC(=O)N2c3nc(-c4cccc(C(F)(F)F)c4)ccc3N3CCC[C@H]2C3)cc1-c1cnco1 [Example 753]
[1]
  Tryp AVG EC1.5 (μM): A (A (EC1.5<1 μM))

## CC(C)c1cc(-c2ccc3c(n2)N(C(=O)Nc2cnccn2)[C@H]2CCN3C2)ccn1 [(9S)-5-[2-(propan-2-yl)pyridin-4-yl]-N-(pyrazin-2-yl)-1,6,8-triazatricyclo[7.2.1.0 {2,7}]dodeca-2,4,6-triene-8-carboxamide]
Trp peptide assay
  TRP Activity (EC1.5): A (A (EC1.5<1 μM))
[3]
  Emax: > 150%

## Cc1ccncc1-c1ccc2c(n1)N(C(=O)Nc1nc(C)c(C)s1)[C@H]1CCCN2C1 [Example 508]
[2]
  Tryp AVG EC1.5 (μM): C (C (EC1.5>25 μM))

## O=C(Nc1cnccn1)N1c2nc(-c3cccc(C(F)(F)F)n3)ccc2N2CC[C@H]1C2 [Example 338]
[4]
  Tryp AVG EC1.5 (μM): B (B (EC1.5 1-25 μM))

## O=C(Nc1cnccn1)N1c2nc(-c3ccnc(C(F)F)c3)ccc2N2CC[C@H]1C2 [(9S)-5-[2-(difluoromethyl)pyridin-4-yl]-N-(pyrazin-2-yl)-1,6,8-triazatricyclo[7.2.1.0 {2,7}]dodeca-2(7),3,5-triene-8-carboxamide]
Trp peptide assay
  TRP Activity (EC1.5): A (A (EC1.5<1 μM))
[3]
  Emax: > 150%

## O=C1CN2C[C@H]1N(C(=O)Nc1ccccn1)c1nc(-c3cccc(C(F)(F)F)c3)ccc12 [Example 620]
[2]
  Tryp AVG EC1.5 (μM): B (B (EC1.5 1-25 μM))

## Cc1ccc(-c2ccc3c(n2)N(C(=O)Nc2cccnc2)[C@H]2CCN3C2)c(C)n1 [(9S)-5-(2,6-dimethylpyridin-3-yl)-N-(pyridin-3-yl)-1,6,8-triazatricyclo[7.2.1.0 {2,7}]dodeca-2(7),3,5-triene-8-carboxamide]
Trp peptide assay
  TRP Activity (EC1.5): B (B (EC1.5 1-25 μM))
[3]
  Emax: > 150%

## O=C(Nc1ccc(F)cn1)N1c2nc(N3CCCC(C(F)(F)F)C3)ccc2N2CCC[C@H]1C2 (stereo partly shown) [Example 359]
[4]
  Tryp AVG EC1.5 (μM): A (A (EC1.5<1 μM))

## Cc1cc(NC(=O)N2c3nc(-c4cccc(C(F)(F)F)c4)ccc3N3CC[C@H]2C3)cc(Br)n1 [Example 540]
[2]
  Tryp AVG EC1.5 (μM): A (A (EC1.5<1 μM))

## Cc1nc(NC(=O)N2c3nc(-c4cncc(C(F)(F)F)c4)ccc3N3C[C@@H](O)[C@H]2C3)sc1C [Example 697]
[1]
  Tryp AVG EC1.5 (μM): B (B (EC1.5 1-25 μM))

## Cc1cc(-c2ccc3c(n2)N(C(=O)Nc2cccnc2)[C@H]2CCN3C2)ccn1 [Example 498]
[2]
  Tryp AVG EC1.5 (μM): A (A (EC1.5<1 μM))

## COc1cc(-c2cccc(Cl)c2)nc2c1N1CC[C@@H](C1)N2C(=O)Nc1cnccn1 [Example 396]
[4]
  Tryp AVG EC1.5 (μM): A (A (EC1.5<1 μM))

## Cc1cc(-c2ccc3c(n2)N(C(=O)Nc2cncnc2)[C@H]2CCN3C2)ccn1 [(9S)-5-(2-methylpyridin-4-yl)-N-(pyrimidin-5-yl)-1,6,8-triazatricyclo[7.2.1.0 {2,7}]dodeca-2(7),3,5-triene-8-carboxamide]
Trp peptide assay
  TRP Activity (EC1.5): C (C (EC1.5>25 μM))
[3]
  Emax: > 150%

## COC(=O)c1cc(-c2ccc3c(n2)N(C(=O)Nc2cnccn2)[C@H]2CCN3C2)ccn1 [methyl 4-[(9S)-8-[(pyrazin-2-yl)carbamoyl]-1,6,8-triazatricyclo[7.2.1.0 {2,7}]dodeca-2(7),3,5-trien-5-yl]pyridine-2-carboxylate]
Trp peptide assay
  TRP Activity (EC1.5): B (B (EC1.5 1-25 μM))
[3]
  Emax: > 150%

## Cc1cncc(NC(=O)N2c3nc(-c4cccc(Cl)c4)ccc3N3C[C@@H](O)[C@H]2C3)c1 [Example 676]
[1]
  Tryp AVG EC1.5 (μM): A (A (EC1.5<1 μM))

## Cc1ccc(-c2ccc3c(n2)N(C(=O)NC2CCOC2)[C@H]2CCN3C2)cn1 (stereo partly drawn) [(9S)-5-(6-methylpyridin-3-yl)-N-(oxolan-3-yl)-1,6,8-triazatricyclo[7.2.1.0 {2,7}]dodeca-2,4,6-triene-8-carboxamide]
Trp peptide assay
  TRP Activity (EC1.5): C (C (EC1.5>25 μM))
[3]
  Emax: < 150%

## O=C(Nc1cccc(-c2cnco2)c1)N1c2nc(-c3cccc(Cl)c3)ccc2N2CC[C@H]1C2 [Example 365]
[4]
  Tryp AVG EC1.5 (μM): A (A (EC1.5<1 μM))

## O=C(Nc1ccccn1)N1c2nc(N3CCC[C@@H]3C(F)(F)F)ccc2N2CCC[C@H]1C2 [(9S)-N-(pyridin-2-yl)-5-[(2R)-2-(trifluoromethyl)pyrrolidin-1-yl]-1,6,8-triazatricyclo[7.3.1.0 {2,7}]trideca-2(7),3,5-triene-8-carboxamide]
Trp peptide assay
  TRP Activity (EC1.5): A (A (EC1.5<1 μM))
[3]
  Emax: > 150%

## NCCCc1ccc(NC(=O)N2c3nc(-c4cccc(C(F)(F)F)c4)ccc3N3CC[C@H]2C3)cc1-c1cnco1 [Example 765]
[1]
  Tryp AVG EC1.5 (μM): A (A (EC1.5<1 μM))

## C[C@H]1COCCN1c1ccc2c(n1)N(C(=O)Nc1cccnc1)[C@H]1CCN2C1 [(9S)-5-[(3S)-3-methylmorpholin-4-yl]-N-(pyridin-3-yl)-1,6,8-triazatricyclo[7.2.1.0^2,7]dodeca-2(7),3,5-triene-8-carboxamide]
Trp peptide assay
  TRP Activity (EC1.5): B (B (EC1.5 1-25 μM))
[3]
  Emax: > 150%

## FC(F)(F)c1cccc(-c2ccc3c(n2)N(C(=S)Nc2cccc(-c4cnco4)c2)[C@H]2CCN3C2)c1 [Example 763]
[1]
  Tryp AVG EC1.5 (μM): A (A (EC1.5<1 μM))

## Cn1nccc1-c1cccc(NC(=O)N2c3nc(-c4cccc(C(F)(F)F)c4)ccc3N3CC[C@H]2C3)n1 [Example 623]
[2]
  Tryp AVG EC1.5 (μM): A (A (EC1.5<1 μM))

## COc1cc(NC(=O)N2c3nc(-c4ccccc4C#N)ccc3N3CCC[C@H]2C3)ncn1 [Example 440]
[2]
  Tryp AVG EC1.5 (μM): C (C (EC1.5>25 μM))

## O=C(Nc1ccccn1)N1c2nc(N3CC[C@@H](C(F)(F)F)C3)ccc2N2CC[C@H]1C2 [(9S)-N-(pyridin-2-yl)-5-[(3R)-3-(trifluoromethyl)pyrrolidin-1-yl]-1,6,8-triazatricyclo[7.2.1.0^2,7]dodeca-2,4,6-triene-8-carboxamide]
Trp peptide assay
  TRP Activity (EC1.5): A (A (EC1.5<1 μM))
[3]
  Emax: > 150%

## CC(C)N1CCCN(c2ccc3c(n2)N(C(=O)Nc2ccncn2)[C@H]2CCCN3C2)CC1 [Example 447]
[2]
  Tryp AVG EC1.5 (μM): C (C (EC1.5>25 μM))

## Cc1ccc(-c2ccc3c(n2)N(C(=O)Nc2cccc4cnccc24)[C@H]2CCN3C2)cn1 [(9S)-N-(isoquinolin-5-yl)-5-(6-methylpyridin-3-yl)-1,6,8-triazatricyclo[7.2.1.0 {2,7}]dodeca-2,4,6-triene-8-carboxamide]
Trp peptide assay
  TRP Activity (EC1.5): B (B (EC1.5 1-25 μM))
[3]
  Emax: > 150%

## Cc1cncc(-c2ccc3c(n2)N(C(=O)Nc2cnccn2)[C@H]2CCCN3C2)c1 [Example 512]
[2]
  Tryp AVG EC1.5 (μM): B (B (EC1.5 1-25 μM))

## O=C(NCCCn1ccnc1)N1c2nc(-c3cccc(C(F)(F)F)c3)ccc2N2CC[C@H]1C2 [Example 627]
[1]
  Tryp AVG EC1.5 (μM): B (B (EC1.5 1-25 μM))

## N=C(NCCN)c1ccc(NC(=O)N2c3nc(-c4cccc(C(F)(F)F)c4)ccc3N3CCC[C@H]2C3)cc1 [Example 792]
[1]
  Tryp AVG EC1.5 (μM): A (A (EC1.5<1 μM))

## N#Cc1ccc(-c2ccc3c(n2)N(C(=O)Nc2cccnc2)[C@H]2CCN3C2)cn1 [(9S)-5-(6-cyanopyridin-3-yl)-N-(pyridin-3-yl)-1,6,8-triazatricyclo[7.2.1.0^2,7]dodeca-2,4,6-triene-8-carboxamide]
Trp peptide assay
  TRP Activity (EC1.5): B (B (EC1.5 1-25 μM))
[3]
  Emax: > 150%

## O=C(Nc1cnccn1)N1c2nc(-c3cccc(Cl)c3)cc(O)c2N2CCC[C@H]1C2 [Example 443]
[2]
  Tryp AVG EC1.5 (μM): B (B (EC1.5 1-25 μM))
Trp mass spectrometry assay, percent maximum fold activation of SIRT1, read-out: Tryp % Fold Act
  Emax: > 150%
